Experimental findings from US12053480B2, “Methods and pharmaceutical compositions for treating peripheral demyelinating diseases” (INSERM (INSTITUT NATIONAL DE LA SANTE ET DE LA RECHERCHE …, priority 2015, dated 2024) are described below.

Series [1] has as its target T1, VDAC1 (Mus musculus, UniProt Q60932).
T1 construct: strongly expressed in mSC mitochondria; from tissue; host or cells: myelinating Schwann cells (mSC) of the sciatic nerve of living mice (wild type; db/db and +/db in A10)
As to the kind of experiment: Mitochondrial calcium imaging (mito-GCaMP2, multiphoton) in mSC of mouse sciatic nerve, nerve crush model. The series is classed as in vivo. Particulars: for mSC mitochondria calcium concentration: non-crushed nerves, two hours after injections, compared to vehicle injection; for mitochondrial calcium release in mSC after nerve crush: mito-GCaMP2, VDAC1 silenced or drug given before crush. How it is done:
(§1) Mice were anesthetized with isoflurane inhalation and placed under a Stemi2000 microscope (Zeiss). Incision area was shaved and cleaned using betadine solution. After incision, the gluteus superficialis and biceps femoris muscles were separated to reveal the cavity traversed by the sciatic nerve. The nerve was lift out using spatula and a thin glass needle filled with viral solution (8 μl) was introduced into the nerve with a micromanipulator. This solution was injected over 30 min with short pressure pulses using a Picospritzer III (Parker Hannifin) coupled to a pulse generator. After injection, the nerve was replaced into the cavity, the muscles were readjusted, and the wound was closed using clips (for further details see Gonzalez et al., 2014^3).
(§2) TRO19622 drug (Tocris bioscience, Ref. 2906) was diluted in ethanol to 20 mM and then, the solution was diluted in sterile PBS to 20 μM. TRO19622 treatments were realized by 3 mg/kg intraperitoneal (IP) injections of 20 mM solution or by intra sciatic nerve injections of 2 μl of drug solution 2 μM using a Hamilton syringe or a glass needle in sterile conditions 30 minutes before multiphoton image acquisitions or immunohistochemistry and demyelination studies respectively. Methyl jasmonate drug (Sigma-Aldrich, Ref. 392707) was diluted in 1 ml of sterile PBS to 1M or 3M. Methyl jasmonate treatments were realized by intra sciatic nerve injections of 1 μl of drug solution using a glass needle and micromanipulator in sterile conditions following the same virus injections procedure (see in vivo virus injection in the sciatic nerve method) two hours before multiphoton image acquisition. […] All drug concentrations were previously evaluated by Bordet et al, 2007^5; Goldin et al, 2008^6; Sharov et al, 2007^7.
(§3) First injected mouse was anesthetized with 5% of isoflurane a 1.5% of oxygen into the anesthesia system box (World Precision Instruments, Ref. EZ-B800) for 5 minutes. Anesthesia controls were realized^8. Then, mouse was placed in anesthesia mask and the incision area was shaved and cleaned with betadine and ethanol 70% solution. Incision was realized using a scalpel and the skin was retracted using forceps in order to expose the gluteus superficialis and bleeps femoris muscles. Next, the connective tissue that connects both muscles was cut and the sciatic nerve was gently lifted out using a spatula. A flexible bridge was slide below sciatic nerve and it was placed into a plastic first pool fixed to the bridge. Mouse was placed under the multiphoton microscope, the bridge was fixed using magnetic brackets to avoid physiological movement and mouse legs were fixed using clippers. Microscope dark box temperature is controlled to 37° C. during all time-lapse imaging. Finally, a second pool was fixed to the first pool using a drop of agarose low melting 3% (Promega, Ref. V2111) in Leibovitz's L15 medium (Gibco Life Technologies) and filled with deionized water to immerse the objectives 20× or 63× (Carl Zeiss Microscopy).
(§4) All time-lapse images were obtained with a multiphoton microscope Zeiss LSM 7 MP OPO. Mitochondria motility images were acquired by time-lapse recording of one image every five minutes during five hours at 920 nm. GCaMP2 and SypHer probe images were acquired by time-lapse recording of one image every fifteen minutes during five hours at 985 nm. Images were acquired to constant 1% of laser intensity to 100 msec of acquisition time with 512×512 resolution and 10 images of z-stack of 20 μm. Images were saved in Zeiss .czi format and processed using Image J program. For further details see Gonzalez et al., 201X^8
To characterize mitochondria physiology during the demyelination process we combined two in vivo methods. We used the nerve crush model to reliably induce demyelination in the mouse sciatic nerve and a viral approach^19 allowing the expression of different fluorescent probes selectively into mitochondria of myelinating Schwann cells (mSC) in mouse sciatic nerve.

Series [2] deals with T1, VDAC1. As to the kind of experiment: Cytoplasmic calcium imaging (GCaMP2, multiphoton) in mSC of mouse sciatic nerve. The series is classed as in vivo. Particulars: for presence of cytoplasmic calcium in mSC after crush: cytoplasmic GCaMP2, after nerve crush. How it is done:
as §1, §2, §3, §4
To characterize mitochondria physiology during the demyelination process we combined two in vivo methods. We used the nerve crush model to reliably induce demyelination in the mouse sciatic nerve and a viral approach^19 allowing the expression of different fluorescent probes selectively into mitochondria of myelinating Schwann cells (mSC) in mouse sciatic nerve. […]

Series [3] deals with mSC mitochondria. The series is described as follows: Mitochondrial pH imaging (mito-SypHer) in mSC of mouse sciatic nerve. The series is classed as in vivo. As to the method: as §1, §2
First injected mouse was anesthetized with 5% of isoflurane a 1.5% of oxygen into the anesthesia system box (World Precision Instruments, Ref. EZ-B800) for 5 minutes. Anesthesia controls were realized^8. Then, mouse was placed in anesthesia mask and the incision area was shaved and cleaned with betadine and ethanol 70% solution. […]

Series [4] concerns mSC mitochondria. The series is described as follows: Mitochondrial motility imaging (mito-dsRed2) in mSC of mouse sciatic nerve. Particulars: for loss of mitochondrial motility after nerve crush: 5 hours after nerve injury, TRO19622 30 minutes before crush. The series is classed as in vivo. As to the method: as §1, §2, §3
All time-lapse images were obtained with a multiphoton microscope Zeiss LSM 7 MP OPO. Mitochondria motility images were acquired by time-lapse recording of one image every five minutes during five hours at 920 nm. GCaMP2 and SypHer probe images were acquired by time-lapse recording of one image every fifteen minutes during five hours at 985 nm. Images were acquired to constant 1% of laser intensity to 100 msec of acquisition time with 512×512 resolution and 10 images of z-stack of 20 μm. […]

Series [5] deals with phospho-ERK1/2, phospho-p38, phospho-JNK and phospho-c-jun. As to the kind of experiment: Western blot of demyelination signaling pathways in sciatic nerve after crush or MJ. The series is classed as in vivo, mouse. Particulars: nerves not crushed; 4 or 12 hours after treatment. As to the method:
as §2

The test system of the next series is phospho-c-jun. As to the kind of experiment: Immunohistochemistry of nuclear phospho-c-jun in mSC after nerve crush or MJ. The series is classed as in vivo, mouse. Particulars: for nuclear phospho-c-jun in mSC after nerve crush: immunohistochemistry, TRO19622 30 minutes prior crush. As to the method:
The dissected nerve was washed in L15 medium, fixed in Zamboni's fixative (Stefanini et al., 1967^4) for 10 min at room temperature, washed in PBS, and incubated in successive glycerol baths (15, 45, 60, 66% in PBS) for 18 to 24 h each before freezing at −20° C. The nerves were cut in small pieces in 66% glycerol and the perineurium sheet removed. Small bundles of fibers were teased in double-distilled water on Superfrost slides, dried overnight at room temperature, and the slides stored at −20° C. For immunostaining, the teased fibers were incubated for 1 h at room temperature in blocking solution (10% goat serum, 0.2% TritonX100, and 0.01% sodium azide in PBS). Then, the samples were then incubated with anti-ECCD2 primary mouse antibody (1/100, BD biosciences, Ref. 610181), anti-phosphoS63-c-jun primary mouse antibody (1/200, BD Biosciences, Ref. 558036), anti-c-jun primary mouse antibody (1/200, BD Biosciences, Ref. 610326), anti-VDAC primary rabbit antibody (1/100, Cell Signaling, Ref. 4866) or/and MitoTracker Red (1/1000, Molecular Probes, Ref. M7515) in blocking solution overnight at 4° C. The next day, the samples were washed in PBS and incubated for 1 h at room temperature with secondary donkey antibodies coupled to Alexa488, Alexa 594 or Alexa647 (1/1600, Molecular probes) and TO-PRO-3 iodide (50 μM, Invitroge, Ref. T3605). Finally the samples were washed in PBS and mounted in Immu-mount (Thermo Scientific). Images were acquired at room temperature using a 20× or 40× objective, a Zeiss confocal microscope LSM710, and its associated software.
as §2
To go further we also selectively silenced VDAC1 in mSC and measured the expression level of nuclear phospho-c-jun by immunohistochemistry after nerve crush. […]

Series [6] deals with myelinating Schwann cells. The series is described as follows: mSC demyelination morphology (confocal microscopy) four days after nerve crush. The series is classed as in vivo, mouse. Particulars: for number of myelinating cell remaining after crush: four days after crush. As to the method: as §1, §2
Finally we also investigated the demyelination using typical defects induced in the cellular morphology of mSC. Nerves expressing control or VDAC1 shRNAs were crushed to induce demyelination and four days later, when demyelination is maximal, we analyzed the morphology of VDAC1-silenced mSC using confocal microscopy as described previously^19. mSC display long homogenous noodle-like morphology with a regular diameter but during demyelination, they acquire a heterogeneous morphology often alterning large structures (myelin ovoids) with thin processes and their extremities split in fine extensions.

In series [7] the test system is phospho-bcl2, cleaved caspase-3. Particulars: after MJ treatment.
Description: To investigate the signaling pathways induced by mitochondrial calcium release, sciatic nerves were treated with vehicle or TRO19622 before crush or with MJ without crush and phosphorylation-activated pathways were determined by western blot 4 hours or 12 hours after nerve crush or MJ treatment. […] While it is known that SC demyelination is not due to cell death but to a dedifferentiation process, we nevertheless checked mitochondria-related cell death factors in crushed or MJ treated nerves.

T1 sequence (Q60932 14-296): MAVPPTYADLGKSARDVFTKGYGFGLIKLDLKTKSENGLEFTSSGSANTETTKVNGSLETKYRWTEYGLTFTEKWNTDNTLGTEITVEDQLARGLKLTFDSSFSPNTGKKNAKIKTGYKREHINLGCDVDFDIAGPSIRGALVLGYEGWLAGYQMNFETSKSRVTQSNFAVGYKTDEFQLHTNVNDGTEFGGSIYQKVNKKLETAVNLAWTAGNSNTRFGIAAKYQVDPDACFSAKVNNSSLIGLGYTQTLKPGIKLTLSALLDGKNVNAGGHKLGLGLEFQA

Regarding `CC/C=C\CC1C(=O)CCC1CC(=O)OC` (centres unmarked) [MJ, methyl jasmonate], the figures for the “mSC mitochondria calcium concentration” value at VDAC1 [1] and at VDAC1 [1] (listed as methyl jasmonate) were “sharply decreased” and “induced mitochondrial calcium release”, respectively. For the same compound, the “calcium presence in the cytoplasm” value at VDAC1 [2] (MJ treatment, non-crushed nerves) is “increased”. The “mitochondrial pH” value in the series with mSC mitochondria [3] (non-crushed nerves) was “increase”. Moreover, the mitochondrial motility entry in the series on mSC mitochondria [4] (without crush) is listed as “decreased”. Moreover, the “phosphorylation-activated pathways and phospho-c-jun” value in series [5] is “significant increase”. Moreover, the nuclear phospho-c-jun entry in the series with phospho-c-jun (nerves treated with MJ) was “robust increase”. In addition, the “number of demyelinating cells” value in series [6] (non-crushed sciatic nerves) is given as “significant increase”. Besides, the “phospho-bcl2 and cleaved caspase-3 levels” value in series [7] is given as “Neither phospho-bcl2 nor cleaved caspase-3 levels were increased”.

On to “VDAC1 shRNA2: VDAC1 shRNA sequence 2 GTTGGCTATAAGACGGATGAACT (Sigma-Aldrich, Ref. #TRCN0000012391), expressed from AAV vector (expressed from AAV vector)”, for which, in the series with VDAC1 [1], the “mitochondrial calcium release in mSC after nerve crush” value is “significantly reduced”. Further, in the series with VDAC1 [2], the “presence of cytoplasmic calcium in mSC after crush” value was “more modest”. Besides, in the series with mSC mitochondria [4], the “loss of mitochondrial motility after nerve crush” value is listed as “significantly prevented”. Further, the “nuclear phospho-c-jun in mSC after nerve crush” value in the series with phospho-c-jun is on record as “strong reduction”. Further, the “number of myelinating cell remaining after crush” value in series [6] is given as “significant increase”.

As for “VDAC1 shRNA3: VDAC1 shRNA sequence 3 ACCAGGTATCAAACTGACGTTCT (Sigma-Aldrich, Ref. #TRCN0000012392), expressed from AAV vector (expressed from AAV vector)”, the results for the “mitochondrial calcium release in mSC after nerve crush” value with VDAC1 [1] and in the series with VDAC1 [1] (listed as VDAC shRNA3) were “completely inhibited” and “completely abolished”, respectively. Besides, in the series with VDAC1 [2] (after nerve crush with VDAC1 silenced or blocked), the “part of the calcium appearing in the cytoplasm after nerve crush that is not abolished (non-mitochondrial origin)” value came to 13%. In addition, in the series with VDAC1 [2], the “presence of cytoplasmic calcium in mSC after crush” value was “strongly reduced”. In addition, the “changes induced by nerve crush in mitochondrial pH not abrogated” value in the series on mSC mitochondria [3] (after nerve crush) is given as 12%. Further, the “loss of mitochondrial motility after nerve crush” value in the series with mSC mitochondria [4] was “significantly prevented”. Further, in the series with mSC mitochondria [4] (after nerve crush), the “changes induced by nerve crush in mitochondrial motility not abrogated” value turned out to be 20%. For the same compound, the “nuclear phospho-c-jun in mSC after nerve crush” value with phospho-c-jun was “strong reduction”. For the same compound, in series [6], the “number of myelinating cell remaining after crush” value is given as “significant increase”.
